Patent US20220008447A1, “Rosacea Treatment Method” (priority 2019, published 2022)

Key:
rosacea = settings: cited from earlier work
patient with rosacea = experiment: Application b.i.d. of other Delphinidin topical formulations to the face of a rosacea patient (Examples 11-13, present tense); format: in vivo, human
Description: A topical gel is made with delphinidin 3,5-O-diglucoside 7% (w/w) in a standard cosmetic disappearing gel base. Application b.i.d. to the face of a patient with lupus-related rosacea, for at least about one month alleviates lupus-related skin inflammation and the patient maintains normal, healthy skin. A topical cream is made with delphinidin 6% (w/w) in a standard cosmetic lipophilic cream base. […] A topical cream is made with delphinidin 3-O-sambubioside 5-O-glucoside 3% (w/w) in a standard cosmetic disappearing cream base. Application b.i.d. to the face of a patient with papulopustular rosacea with transient, central face pustules for two months reduces central facial erythema and eliminates transient central face pustules.

[1] = Example 13, 3% (w/w) disappearing cream, papulopustular rosacea, two months

Compound: CC[C@H]1OC(=O)[C@H](C)[C@@H](O[C@H]2C[C@@](C)(OC)[C@@H](O)[C@H](C)O2)[C@H](C)[C@@H](O[C@@H]2O[C@H](C)C[C@H](N(C)C)[C@H]2O)[C@](C)(O)C[C@@H](C)CN(C)[C@H](C)[C@@H](O)[C@]1(C)O [Azithromycin]
- efficacy compared with 100 mg doxycycline (rosacea; only one study): may be as effective as 100 mg doxycycline

Compound: O=C(O)CCCCCCCC(=O)O [azelaic acid]
- reducing rosacea symptoms (rosacea; prior-art treatment): effective and safe
- side effects (rosacea; prior-art treatment): caused mild burning, stinging or irritation
- time until improvements appear (rosacea; prior-art treatment): three to six

Compound: Brc1c(NC2=NCCN2)ccc2nccnc12 [brimonidine]
- duration of effect on redness after being applied (rosacea; prior-art treatment): up to 12 hours

Compound: OC[C@H]1O[C@@H](Oc2cc3c(O[C@@H]4O[C@H](CO)[C@@H](O)[C@H](O)[C@H]4O)cc(O)cc3[o+]c2-c2cc(O)c(O)c(O)c2)[C@H](O)[C@@H](O)[C@@H]1O [delphinidin 3,5-O-diglucoside]
- lupus-related skin inflammation (patient with rosacea; Example 11, 7% (w/w) topical gel, lupus-related rosacea, at least about one month): alleviates

Compound: OC[C@H]1O[C@@H](Oc2cc(O)cc3[o+]c(-c4cc(O)c(O)c(O)c4)c(O[C@@H]4O[C@H](CO)[C@@H](O)[C@H](O)[C@H]4O[C@@H]4OC[C@@H](O)[C@H](O)[C@H]4O)cc23)[C@H](O)[C@@H](O)[C@@H]1O [delphinidin 3-O-sambubioside 5-O-glucoside]
- central facial erythema (patient with rosacea; [1]): reduces
- transient central face pustules (patient with rosacea; [1]): eliminates

Compound: Oc1cc(O)c2cc(O)c(-c3cc(O)c(O)c(O)c3)[o+]c2c1 [delphinidin, 2-(3,4,5-trihydroxyphenyl) chromenylium-3,5,7-triol]
- flushing, persistent central facial erythema and telangiectasia (patient with rosacea; Example 12, 6% (w/w) lipophilic cream, erythematotelangiectatic rosacea, two weeks): measurably reduces

Compound: C[C@H]1c2cccc(O)c2C(=O)C2=C(O)[C@]3(O)C(=O)C(C(N)=O)=C(O)[C@@H](N(C)C)[C@@H]3[C@@H](O)[C@@H]21 [doxycycline]
- side effects of low dose compared with 100 mg (rosacea; low dose, 40 mg): much fewer side effects of diarrhea and nausea

Compound: CC1=C(/C=C/C(C)=C/C=C/C(C)=C\C(=O)O)C(C)(C)CCC1 [isotretinoin]
- efficacy compared with doxycycline, pimples and pustules (rosacea; low dose, 0.3 mg/kg): slightly more effective than 50-100 mg doxycycline

Compound: Cc1ncc([N+](=O)[O-])n1CCO [metronidazole]
- reducing rosacea symptoms (rosacea; prior-art treatment): effective and safe
- side effects (rosacea; prior-art treatment): very few people experienced mild itching, skin irritation and dry skin
- time until improvements appear (rosacea; prior-art treatment): three to six

Compound: Ivermectin
- efficacy compared with placebo and metronidazole (rosacea; prior-art treatment): more effective than placebo and slightly more effective than metronidazole
